Where two headings read alike, the source gives them in different places.
Assays:
EGFR[T790M/C797S/L858R] = target: T1, EGFR[T790M/C797S/L858R] (Homo sapiens, UniProt P00533, C797S/L858R/T790M); assay: Inhibition of EGFR[T790M/C797S/L858R] biochemical enzymatic activity (HTRF); details: 1 mM ATP
T1 construct: purchased Carna Bio
Method in brief: (§1)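 Time-resolved FRET assay of EGFR substrate phosphorylation. Conditions: 1 μM TK substrate-biotin, 1 mM ATP, Mg/Mn buffer, 1 h at RT. IC50 from 4-parameter curve fit.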

[1] = tested on: Ba/F3 cells expressing EGFR mutations; assay: Cell proliferation assay, Ba/F3 cells expressing EGFR mutations (CellTiter-Glo, 72 hours); assay type: cell-based
Method in brief: (§2)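 GI50 is the concentration giving 50% proliferation inhibition. Growth for this was normalised to a baseline viability reading taken when compound was added, and to DMSO wells. PC-9 (500 cells/well) and mutant-EGFR Ba/F3 (5000 cells/well) are treated after overnight seeding in RPMI1640-based medium.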

EGFR (C797S L858R) = target: T2, EGFR (C797S L858R) (Homo sapiens, UniProt P00533, C797S/L858R); assay: Inhibition of EGFR (C797S L858R) biochemical enzymatic activity (HTRF); details: 1 mM ATP
T2 construct: purchased signalchem
Method in brief: as §1

EGFR wild type = target: T3, EGFR wild type (Homo sapiens, UniProt P00533); assay: Inhibition of EGFR wild type biochemical enzymatic activity (HTRF); details: 1 mM ATP
T3 construct: purchased Carna Bio
Method in brief: as §1

[2] = target: T4, EGFR[T790M/C797S/d746-750] (Homo sapiens, UniProt P00533, C797S/DEL746-750/T790M); assay: Inhibition of EGFR[T790M/C797S/d746-750] biochemical enzymatic activity (HTRF)
T4 construct: purchased Carna Bio
Method in brief: as §1

EGFR L858R = target: T5, EGFR L858R (Homo sapiens, UniProt P00533, L858R); assay: Inhibition of EGFR L858R biochemical enzymatic activity (HTRF); details: 1 mM ATP
T5 construct: purchased Carna Bio
Method in brief: as §1

EGFR Exon19Del/T790M = target: T6, EGFR Exon19Del/T790M (Homo sapiens, UniProt P00533, DEL746-750/T790M); assay: Inhibition of EGFR Exon19Del/T790M biochemical enzymatic activity (HTRF); details: 1 mM ATP
T6 construct: purchased Carna Bio
Method in brief: as §1

A-431 = assay: Cell proliferation assay, A-431 cells (GI50, Table 6); assay type: cell-based; details: Homo sapiens, A-431, A-431 cells
EGFR Exon19Del = target: T7, EGFR Exon19Del (Homo sapiens, UniProt P00533, DEL746-750); assay: Inhibition of EGFR Exon19Del biochemical enzymatic activity (HTRF); details: read-out: IC50 @Del19
T7 construct: purchased Carna Bio
Method in brief: as §1

EGFR L858R/T790M = target: T8, EGFR L858R/T790M (Homo sapiens, UniProt P00533, L858R/T790M); assay: Inhibition of EGFR L858R/T790M biochemical enzymatic activity (HTRF); details: 1 mM ATP
T8 construct: purchased Carna Bio
Method in brief: as §1

EGFR (d746-750 C797S) = target: T9, EGFR (d746-750 C797S) (Homo sapiens, UniProt P00533, C797S/DEL746-750); assay: Inhibition of EGFR (d746-750 C797S) biochemical enzymatic activity (HTRF); details: 1 mM ATP
T9 construct: purchased signalchem
Method in brief: as §1

PC-9 = assay: Cell proliferation assay, PC-9 cells (CellTiter-Glo, 72 hours); assay type: cell-based; details: PC9 cells, read-out: GI50 PC9
Method in brief: as §2

[3] = EGFR T790M-C797S-L858R, 1 h, room temperature, read-out: IC50 (nM) @T790M- C797S - L858R
[4] = Mus musculus, BaF3, 72 h, BaF3 cells, EGFR DEL19 - C797S, read-out: GI50 DEL19 - C797S/BaF3
[5] = Mus musculus, BaF3, 72 h, BaF3 cells, EGFR DEL19 - T790-C797S, read-out: GI50 DEL19 - T790-C797S/BaF3
[6] = Mus musculus, BaF3, 72 h, BaF3 cells, EGFR L858R - C797S, read-out: GI50 L858R - C797S/BaF3
[7] = Mus musculus, BaF3, 72 h, BaF3 cells, EGFR L858R - T790-C797S, read-out: GI50 L858R - T790-C797S/BaF3
[8] = Mus musculus, BaF3, 72 h, BaF3 cells, EGFR L858R - T790M, read-out: GI50 L858R - T790M/BaF3
[9] = Mus musculus, BaF3, 72 h, BaF3 cells, EGFR L858R, read-out: GI50 L858R/BaF3
[10] = Mus musculus, BaF3, 72 h, EGFR DEL19 - T790M, read-out: GI50 DEL19 - T790M
[11] = EGFR L858-C797S, 1 h, room temperature, read-out: IC50 (nM) @L858-C797S
[12] = EGFR WT, 1 h, room temperature, read-out: IC50 (nM) @WT
[13] = EGFR T790M-C797S-Del19, 1 mM ATP, 1 h, room temperature, read-out: IC50 (nM) @T790M - C797S - Del19
[14] = 1 h, room temperature, read-out: IC50 (nM) @L858R
[15] = EGFR Del19-T790M, 1 h, room temperature, read-out: IC50 (nM) @Del19-T790M
[16] = EGFR Del19, 1 mM ATP, 1 h, room temperature
[17] = EGFR L858R-T790M, 1 h, room temperature, read-out: IC50 (nM) @L858R-T790M
[18] = EGFR Del19-C797S, 1 h, room temperature, read-out: IC50 (nM) @Del19-C797S

T8 sequence (P00533 25-1210 T790M/L858R): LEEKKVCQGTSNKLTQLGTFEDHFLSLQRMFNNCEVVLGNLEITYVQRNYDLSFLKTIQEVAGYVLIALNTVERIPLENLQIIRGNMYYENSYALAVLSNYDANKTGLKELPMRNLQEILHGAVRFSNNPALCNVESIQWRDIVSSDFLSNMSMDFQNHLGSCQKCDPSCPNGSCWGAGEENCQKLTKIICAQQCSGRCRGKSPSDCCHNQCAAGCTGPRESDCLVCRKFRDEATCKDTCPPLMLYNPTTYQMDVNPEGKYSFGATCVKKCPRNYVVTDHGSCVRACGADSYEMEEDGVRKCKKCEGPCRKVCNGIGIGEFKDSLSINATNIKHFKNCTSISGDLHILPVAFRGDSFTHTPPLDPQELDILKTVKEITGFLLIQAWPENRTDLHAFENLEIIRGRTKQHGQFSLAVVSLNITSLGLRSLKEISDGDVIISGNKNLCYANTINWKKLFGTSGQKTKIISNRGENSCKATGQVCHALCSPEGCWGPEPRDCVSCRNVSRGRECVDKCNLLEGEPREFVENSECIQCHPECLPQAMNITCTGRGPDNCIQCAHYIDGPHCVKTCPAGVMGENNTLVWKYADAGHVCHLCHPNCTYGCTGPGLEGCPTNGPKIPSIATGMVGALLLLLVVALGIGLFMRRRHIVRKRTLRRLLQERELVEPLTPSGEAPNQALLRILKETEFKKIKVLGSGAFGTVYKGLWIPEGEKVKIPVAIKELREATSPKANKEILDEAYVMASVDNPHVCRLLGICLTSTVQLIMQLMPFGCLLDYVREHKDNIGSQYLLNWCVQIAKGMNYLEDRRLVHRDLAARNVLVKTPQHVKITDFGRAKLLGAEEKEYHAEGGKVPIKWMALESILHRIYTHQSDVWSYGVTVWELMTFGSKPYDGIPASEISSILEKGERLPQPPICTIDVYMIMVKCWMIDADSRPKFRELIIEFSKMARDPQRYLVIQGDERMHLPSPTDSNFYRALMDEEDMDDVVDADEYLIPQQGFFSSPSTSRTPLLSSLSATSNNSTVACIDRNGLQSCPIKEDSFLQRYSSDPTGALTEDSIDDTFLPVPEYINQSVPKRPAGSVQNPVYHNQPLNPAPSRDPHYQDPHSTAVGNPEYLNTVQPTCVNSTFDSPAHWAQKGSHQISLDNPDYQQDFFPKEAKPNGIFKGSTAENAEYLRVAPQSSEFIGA
T7 sequence (P00533 with tags, fused parts or gaps DEL746-750 limits assumed): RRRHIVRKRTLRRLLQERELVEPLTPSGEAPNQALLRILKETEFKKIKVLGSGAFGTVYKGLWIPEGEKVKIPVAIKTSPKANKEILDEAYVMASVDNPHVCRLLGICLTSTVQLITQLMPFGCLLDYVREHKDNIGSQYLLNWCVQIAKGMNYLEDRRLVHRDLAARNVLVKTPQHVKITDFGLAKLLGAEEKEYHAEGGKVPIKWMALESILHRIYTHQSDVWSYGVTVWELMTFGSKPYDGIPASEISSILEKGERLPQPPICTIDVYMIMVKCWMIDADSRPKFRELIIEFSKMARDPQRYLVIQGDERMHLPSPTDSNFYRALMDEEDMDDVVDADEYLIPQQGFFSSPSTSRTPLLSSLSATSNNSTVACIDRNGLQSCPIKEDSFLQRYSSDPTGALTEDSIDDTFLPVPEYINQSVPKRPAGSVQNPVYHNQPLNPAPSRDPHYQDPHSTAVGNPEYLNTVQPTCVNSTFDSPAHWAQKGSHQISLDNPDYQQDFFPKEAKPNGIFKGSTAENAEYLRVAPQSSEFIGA
T1 sequence (P00533 25-1210 T790M/C797S/L858R): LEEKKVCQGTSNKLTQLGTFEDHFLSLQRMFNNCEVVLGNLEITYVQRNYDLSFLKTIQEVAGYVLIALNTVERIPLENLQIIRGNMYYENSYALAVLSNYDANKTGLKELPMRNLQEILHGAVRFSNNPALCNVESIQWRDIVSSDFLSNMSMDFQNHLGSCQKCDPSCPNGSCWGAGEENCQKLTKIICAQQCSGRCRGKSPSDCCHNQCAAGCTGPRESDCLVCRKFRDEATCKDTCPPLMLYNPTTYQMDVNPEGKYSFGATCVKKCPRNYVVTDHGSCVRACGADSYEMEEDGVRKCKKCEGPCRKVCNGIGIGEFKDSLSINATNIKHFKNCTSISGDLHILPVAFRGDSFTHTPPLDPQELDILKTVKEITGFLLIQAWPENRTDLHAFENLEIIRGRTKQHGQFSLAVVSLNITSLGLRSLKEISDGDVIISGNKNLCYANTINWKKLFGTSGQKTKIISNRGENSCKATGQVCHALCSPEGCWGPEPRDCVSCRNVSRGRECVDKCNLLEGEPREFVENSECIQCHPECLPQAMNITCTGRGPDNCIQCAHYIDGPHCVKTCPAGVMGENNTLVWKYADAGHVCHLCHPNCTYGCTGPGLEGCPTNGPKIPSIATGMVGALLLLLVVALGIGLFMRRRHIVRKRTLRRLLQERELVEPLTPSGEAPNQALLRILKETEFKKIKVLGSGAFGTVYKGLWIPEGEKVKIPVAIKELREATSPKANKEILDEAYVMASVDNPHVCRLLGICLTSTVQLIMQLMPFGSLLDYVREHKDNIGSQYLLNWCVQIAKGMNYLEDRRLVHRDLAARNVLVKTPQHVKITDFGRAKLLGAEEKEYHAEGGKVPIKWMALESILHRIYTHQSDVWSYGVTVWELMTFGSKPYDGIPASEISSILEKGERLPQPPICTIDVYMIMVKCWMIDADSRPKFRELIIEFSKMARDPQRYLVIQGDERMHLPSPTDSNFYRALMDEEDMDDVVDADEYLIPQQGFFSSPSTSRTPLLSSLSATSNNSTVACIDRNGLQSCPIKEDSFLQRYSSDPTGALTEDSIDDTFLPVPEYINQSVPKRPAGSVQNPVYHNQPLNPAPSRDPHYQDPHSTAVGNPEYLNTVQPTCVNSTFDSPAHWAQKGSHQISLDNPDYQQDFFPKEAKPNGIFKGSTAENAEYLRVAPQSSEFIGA
T2 sequence (P00533 25-1210 C797S/L858R): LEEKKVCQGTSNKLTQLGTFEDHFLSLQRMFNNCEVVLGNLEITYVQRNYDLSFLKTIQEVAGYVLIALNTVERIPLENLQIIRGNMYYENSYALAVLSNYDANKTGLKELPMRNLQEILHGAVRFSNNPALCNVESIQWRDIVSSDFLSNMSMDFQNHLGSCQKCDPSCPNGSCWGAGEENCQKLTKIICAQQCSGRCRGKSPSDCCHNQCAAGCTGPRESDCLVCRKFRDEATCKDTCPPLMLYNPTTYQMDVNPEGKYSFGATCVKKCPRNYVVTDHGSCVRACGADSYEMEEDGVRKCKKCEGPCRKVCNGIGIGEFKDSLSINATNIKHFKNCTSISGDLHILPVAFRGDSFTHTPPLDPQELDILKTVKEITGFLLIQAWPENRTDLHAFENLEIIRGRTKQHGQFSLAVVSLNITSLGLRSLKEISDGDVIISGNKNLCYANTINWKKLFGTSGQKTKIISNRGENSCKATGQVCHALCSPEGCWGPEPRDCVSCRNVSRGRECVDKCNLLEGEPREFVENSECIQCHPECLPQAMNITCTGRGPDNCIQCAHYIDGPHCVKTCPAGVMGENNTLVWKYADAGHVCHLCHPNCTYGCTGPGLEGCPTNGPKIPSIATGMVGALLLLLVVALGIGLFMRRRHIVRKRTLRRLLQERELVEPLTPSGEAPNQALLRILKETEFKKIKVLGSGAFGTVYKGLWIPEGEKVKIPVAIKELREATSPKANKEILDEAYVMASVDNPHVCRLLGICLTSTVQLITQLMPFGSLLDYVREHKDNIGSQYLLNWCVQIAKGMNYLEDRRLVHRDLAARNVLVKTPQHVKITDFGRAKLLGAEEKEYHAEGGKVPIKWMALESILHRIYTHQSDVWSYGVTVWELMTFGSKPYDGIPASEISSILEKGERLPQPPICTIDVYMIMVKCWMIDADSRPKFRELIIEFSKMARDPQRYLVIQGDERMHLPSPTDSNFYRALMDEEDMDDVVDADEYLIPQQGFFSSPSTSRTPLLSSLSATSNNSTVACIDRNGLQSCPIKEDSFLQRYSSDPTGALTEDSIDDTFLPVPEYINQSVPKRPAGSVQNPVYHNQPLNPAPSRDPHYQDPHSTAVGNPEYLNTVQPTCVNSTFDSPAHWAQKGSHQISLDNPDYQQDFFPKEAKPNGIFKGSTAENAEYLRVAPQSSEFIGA
T6 sequence (P00533 with tags, fused parts or gaps DEL746-750/T790M limits assumed): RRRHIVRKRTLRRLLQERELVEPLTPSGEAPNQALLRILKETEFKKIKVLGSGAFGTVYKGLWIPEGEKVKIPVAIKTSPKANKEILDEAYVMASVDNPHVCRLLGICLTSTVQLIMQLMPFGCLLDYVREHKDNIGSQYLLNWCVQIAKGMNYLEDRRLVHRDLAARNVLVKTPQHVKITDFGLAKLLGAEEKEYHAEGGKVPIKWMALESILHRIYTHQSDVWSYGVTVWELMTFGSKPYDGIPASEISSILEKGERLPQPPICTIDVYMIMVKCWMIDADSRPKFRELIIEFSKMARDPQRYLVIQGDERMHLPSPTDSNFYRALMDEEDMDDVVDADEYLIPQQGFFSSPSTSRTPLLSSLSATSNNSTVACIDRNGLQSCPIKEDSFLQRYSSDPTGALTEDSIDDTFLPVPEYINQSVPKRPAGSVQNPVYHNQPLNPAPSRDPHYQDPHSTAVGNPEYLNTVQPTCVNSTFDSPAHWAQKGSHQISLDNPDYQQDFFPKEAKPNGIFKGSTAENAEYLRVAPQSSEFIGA

Compound: Cc1cc2cc(n1)-c1cnn(C)c1OCCN1CC3CCC(C3)(C1)n1c(nc3ccc(N4CCC5(CN(C)C5)C4)cc31)NC2=O (single isomer, unassigned) [Example B50B]
- IC50 (EGFR[T790M/C797S/L858R]; EGFR[T790M/C797S/L858R], 1 h at room temperature, read-out: IC50 @T790M- C797S - L858R): 1.5 nM
- GI50 ([1]; BaF3 cells, EGFR DEL19 - C797S, read-out: GI50 DEL19 - C797S/BaF3): 2 nM
- GI50 ([1]; BaF3 cells, EGFR DEL19 - T790-C797S, read-out: GI50 DEL19 - T790-C797S/BaF3): 2 nM
- GI50 ([1]; BaF3 cells, EGFR L858R - C797S, read-out: GI50 L858R - C797S/BaF3): 4 nM
- GI50 ([1]; BaF3 cells, EGFR L858R - T790-C797S, read-out: GI50 L858R - T790-C797S/BaF3): 2 nM
- GI50 ([1]; BaF3 cells, EGFR L858R - T790M, read-out: GI50 L858R - T790M/BaF3): 2 nM
- GI50 ([1]; BaF3 cells, EGFR L858R, read-out: GI50 L858R/BaF3): 7 nM
- GI50 ([1]; EGFR DEL19 - T790M, read-out: GI50 DEL19 - T790M): 2 nM
- IC50 (EGFR (C797S L858R); EGFR (C797S L858R), 1 h at room temperature, read-out: IC50 @L858-C797S): 7 nM
- IC50 (EGFR wild type; EGFR wild type, 1 h at room temperature, read-out: IC50 @WT): 413 nM
- IC50 ([2]; EGFR[T790M/C797S/d746-750], 1 mM ATP, 1 h at room temperature, read-out: IC50 @T790M - C797S - Del19): 2.4 nM
- IC50 (EGFR L858R; 1 h at room temperature, read-out: IC50 @L858R): 26 nM
- IC50 (EGFR Exon19Del/T790M; EGFR Exon19Del/T790M, 1 h at room temperature, read-out: IC50 @Del19-T790M): 3.6 nM
- GI50 (A-431): 1570 nM
- IC50 (EGFR Exon19Del; EGFR Exon19Del, 1 mM ATP, 1 h at room temperature): 5.1 nM
- IC50 (EGFR L858R/T790M; EGFR L858R/T790M, 1 h at room temperature, read-out: IC50 @L858R-T790M): 3 nM
- IC50 (EGFR (d746-750 C797S); EGFR (d746-750 C797S), 1 h at room temperature, read-out: IC50 @Del19-C797S): 2.1 nM
- GI50 (PC-9): 8 nM

Compound: Cn1ncc2c1OCCN1CC3CCC(CC3)(C1)n1c(nc3cc(F)ccc31)NC(=O)c1cc-2c(=O)n(C)c1 [Example A116, 6-fluoro-15,21-dimethyl-23-oxa-2,9,11,15,20,21,26-heptaazaheptacyclo[26.2.2.1^{1,26}.1^{13,17}.0^{2,10}.0^{3,8}.0^{18,22}]tetratriaconta-3,5,7,9,13,17(34),18(22),19-octaene-12,16-dione]
- IC50 (EGFR[T790M/C797S/L858R]; [3]): > 5000 nM
- GI50 [1, 4]: 56 nM
- GI50 [1, 5]: 336 nM
- GI50 [1, 6]: 194 nM
- GI50 [1, 7]: 162 nM
- GI50 [1, 8]: 720 nM
- GI50 [1, 9]: 419 nM
- GI50 [1, 10]: 157 nM
- IC50 (EGFR (C797S L858R); [11]): 3700 nM
- IC50 (EGFR wild type; [12]): > 5000 nM
- IC50 [2, 13]: 168 nM
- IC50 (EGFR L858R; [14]): > 5000 nM
- IC50 (EGFR Exon19Del/T790M; [15]): 88 nM
- GI50 (A-431): 3440 nM
- IC50 (EGFR Exon19Del; [16]): 464 nM
- IC50 (EGFR L858R/T790M; [17]): > 5000 nM
- IC50 (EGFR (d746-750 C797S); [18]): 474 nM
- GI50 (PC-9; Homo sapiens, PC-9, 72 h): 256 nM

Compound: CN1CC2CN(c3ccc4nc5n(c4c3)C34CCC(CC3)CN(CCOc3c(cnn3C)-c3cc(cn(C)c3=O)C(=O)N5)C4)CC2C1 (stereo not drawn) [Example A126]
- IC50 (EGFR[T790M/C797S/L858R]; [3]): 52 nM
- GI50 [1, 4]: 7.3 nM
- GI50 [1, 5]: 36 nM
- GI50 [1, 6]: 29 nM
- GI50 [1, 7]: 18 nM
- GI50 [1, 8]: 50 nM
- GI50 [1, 9]: 5.5 nM
- GI50 [1, 10]: 26 nM
- IC50 (EGFR (C797S L858R); [11]): 71 nM
- IC50 (EGFR wild type; [12]): > 5000 nM
- IC50 [2, 13]: 8.9 nM
- IC50 (EGFR L858R; [14]): 95 nM
- IC50 (EGFR Exon19Del/T790M; [15]): 12 nM
- GI50 (A-431): 4090 nM
- IC50 (EGFR Exon19Del; [16]): 13 nM
- IC50 (EGFR L858R/T790M; [17]): 169 nM
- IC50 (EGFR (d746-750 C797S); [18]): 9.9 nM
- GI50 (PC-9; Homo sapiens, PC-9, 72 h): 34 nM

Reference: US20260365670A1, “EGFR INHIBITORS AND USES THEREOF” (DIZAL (JIANGSU) PHARMACEUTICAL CO., LTD., priority 2022, published 2026)
